Results as given in patent US8394785B2, “Methods for the treatment and amelioration of urticaria” (Jado Technologies GmbH, priority 2005, dated 2013).

Key:
[1] = tested on: allergic volunteers with known type-1-sensitizations; experiment: Prick test with patient-specific allergen after topical pre-treatment, wheal size; type: in vivo, human; conditions: n = 5; for allergen-prick wheal ± standard error: miltefosine pre-treatment (6% solution, topical, 2 h before); for allergen-prick % inhibition ± standard error (by miltefosine pre-treatment): versus placebo pre-treatment
Excerpt: (§1) To provide proof of concept that miltefosine inhibits IgE-dependent human mast cell stimulation and mediator release in vivo we performed a study on selected allergic volunteers with known type-1-sensitizations (n=5). The volunteers were subjected to standard prick testing with their known allergens on both forearms as well as with positive (histamine) and negative (saline) controls (Table 3). Using a double blind, placebo controlled approach, one forearm of each test person was pre-treated with topical miltefosine (6% solution). The contralateral side was subjected to a pre-treatment with a placebo solution (saline), both two hours prior to the prick test. Subsequently, developing skin symptoms were measured with high-quality standardized methods, i.e. macroscopic standard prick test-evaluation (Heinzerling et al 2005), volumetric imaging, thermography, and digital time lapse photography (DTLP). Volunteers known to suffer from permanent severe diseases, especially those affecting the immune system, were excluded from the study. None of the volunteers took any oral […] or leukotriene antagonists within 7 days prior to the beginning of the study. Moreover, none of them took any oral or depot corticosteroids or other immunosuppressive drugs within 21 days before the testing. The course of developing lesions (wheal and erythema size) was assessed macroscopically by measuring vertical and perpendicular diameter of wheal and erythema size. Subsequently, the sum of both diameters was divided by two. In addition, volumetric and thermographic imaging as well as DTLP was performed before and at defined time points after prick testing. To assess the course of developing prick test lesions, wheal size was assessed macroscopically by measuring the diameters at distinct time points after prick testing.

[2] = tested on: allergic volunteers with known type-1-sensitizations; experiment: Prick test with histamine after topical pre-treatment, wheal size; type: in vivo, human; conditions: n = 5; for histamine-prick wheal ± standard error: miltefosine pre-treatment (6% solution, topical, 2 h before); for histamine-prick % inhibition ± standard error (by miltefosine pre-treatment): versus placebo pre-treatment
Excerpt: as §1

[3] = tested on: primary human mast cells (human skin); experiment: Histamine release assay, Substance P induced, primary human mast cells; type: cell-based; conditions: dose-dependent; not dependent on pre-incubation time
Description: Tissue mast cells were isolated from human skin obtained during cosmetic surgery. Use of human skin was conducted according to the Declaration of Helsinki Principles and was approved by the Institutional Review Board of the Charité—Universitätsmedizin Berlin. For isolation of mast cells, the epidermis was enzymatically detached by an overnight incubation at 4° C. with dispase at a concentration of 1 mg/ml. The remaining dermis was dispersed by incubation with a mix of collagenase I and hyaluronidase for 1 h at 37° C. Dispersion was repeated three times, and the collected cells were washed. […] The final mast cell purity was >90% as measured by Toluidin blue staining. The viability of mast cells was >95% as assessed by Trypan blue staining (Grützkau et al 2000, Artuc et al 2002). The quantification of histamine levels was achieved using an automated histamine-analyser system (Firm Borgwelt Technik). The wavelength of the excitation was 355-360 nm and the emission wavelength of fluorescence measurement was 450-460 nm. The intensity of fluorescence was directly proportional to the concentration of histamine in the samples. The amount of released histamine was calculated according to the following formula: net histamine release=(release−blank)×(100/complete). […]

`CCCCCCCCCCCCCCCCOP(=O)([O-])OCC[N+](C)(C)C` [Compound 3, 1-hexadecylphosphoryl-choline] was tested. Which “allergen-prick wheal ± standard error” value ([1]; 15 minutes after prick testing) did it give?
The value was 4.20 ± 1.36 mm.

And the “allergen-prick wheal ± standard error” value ([1]; 20 minutes after prick testing)?
Its value is 4.40 ± 1.34 mm.

What about the “allergen-prick wheal ± standard error” value ([1]; 30 minutes after prick testing) of the same compound?
Its value is 2.90 ± 1.36 mm.

What about the “allergen-prick % inhibition ± standard error (by miltefosine pre-treatment)” value ([1]; 15 minutes after prick testing) of the same compound?
The value was 35.0 ± 16.6%.

And the “allergen-prick % inhibition ± standard error (by miltefosine pre-treatment)” value ([1]; 20 minutes after prick testing)?
Its value is 34.8 ± 18.0%.

And the “allergen-prick % inhibition ± standard error (by miltefosine pre-treatment)” value ([1]; 30 minutes after prick testing)?
The value was 51.8 ± 22.8%.

What about the “histamine-prick wheal ± standard error” value ([2]; 15 minutes after prick testing) of the same compound?
The value was 4.40 ± 0.86 mm.

And the “histamine-prick wheal ± standard error” value ([2]; 20 minutes after prick testing)?
The value was 4.30 ± 1.08 mm.

And the “histamine-prick wheal ± standard error” value ([2]; 30 minutes after prick testing)?
The value was 3.40 ± 1.43 mm.

What about the “histamine-prick % inhibition ± standard error (by miltefosine pre-treatment)” value ([2]; 15 minutes after prick testing) of the same compound?
The value was 22.4 ± 14.2%.

And the “histamine-prick % inhibition ± standard error (by miltefosine pre-treatment)” value ([2]; 20 minutes after prick testing)?
Its value is 19.2 ± 23.1%.

What about the “histamine-prick % inhibition ± standard error (by miltefosine pre-treatment)” value ([2]; 30 minutes after prick testing) of the same compound?
The value was −7.9 ± 23.2%.

What about the “inhibition of Substance P induced histamine release” value [3] of the same compound?
Its value is 45%.
